This note sets out measurements from ChEMBL document CHEMBL3526156, “Bioactivation of the cancer chemopreventive agent tamoxifen to quinone methides by cytochrome P4502B6 and identification of the modified residue on the apoprotein” (Drug Metab Dispos, 2012).

Type in all cases: ADME
Data set [1] concerns the target T1, Cytochrome P450 2B6 (Homo sapiens, UniProt P20813).
T1 sequence (P20813 whole entry): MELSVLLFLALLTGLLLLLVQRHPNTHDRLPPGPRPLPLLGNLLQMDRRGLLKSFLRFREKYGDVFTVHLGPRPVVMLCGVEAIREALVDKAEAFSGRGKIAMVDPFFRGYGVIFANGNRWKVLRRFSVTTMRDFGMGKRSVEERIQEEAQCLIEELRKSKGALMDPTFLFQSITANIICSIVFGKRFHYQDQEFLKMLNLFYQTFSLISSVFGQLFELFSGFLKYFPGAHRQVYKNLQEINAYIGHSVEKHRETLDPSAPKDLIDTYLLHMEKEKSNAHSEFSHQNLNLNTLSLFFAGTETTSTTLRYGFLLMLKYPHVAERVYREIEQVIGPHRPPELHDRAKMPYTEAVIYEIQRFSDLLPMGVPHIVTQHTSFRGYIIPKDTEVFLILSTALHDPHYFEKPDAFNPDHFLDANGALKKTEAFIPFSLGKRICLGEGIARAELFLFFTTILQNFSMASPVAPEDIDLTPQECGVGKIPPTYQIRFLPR
Nature of the data set: Activity at CYP2B6 (unknown origin) expressed Escherichia coli C41 DE3 cells assessed as enzyme-mediated 4-hydroxytamoxifen quinone methide metabolite formation by measuring reactive metabolite adduct with GSHEE at 90 uM by LC-MS/MS analysis.

Data set [2] addresses T1, Cytochrome P450 2B6. Nature of the data set: Inactivation of CYP2B6 (unknown origin) expressed in Escherichia coli C41 DE3 cells assessed as modified apo-P450 2B6 adduct formation at 60 uM after 10 mins by ESI-LC-MS analysis in presence of NADPH.
Data set [3] has as its target T1, Cytochrome P450 2B6. The experiment in a line: Inactivation of CYP2B6 (unknown origin) expressed in Escherichia coli C41 DE3 cells assessed as modified apo-P450 2B6 adduct formation at 60 uM by ESI-LC-MS analysis in presence of NADPH and GSHEE.
Data set [4] addresses T1, Cytochrome P450 2B6. The experiment in a line: Activity at CYP2B6 (unknown origin) expressed Escherichia coli C41 DE3 cells assessed as compound formation by measuring retention time treated with 4-hydroxytamoxifen at 90 uM by LC-MS/MS analysis.
Data set [5] is described as follows: Drug metabolism in human liver microsomes assessed as compound formation by measuring retention time at 90 uM by LC-MS/MS analysis. (In general: Liver microsomes are vesicles of endoplasmic reticulum, rich in cytochrome P450 enzymes.)
The target of data set [6] is T1, Cytochrome P450 2B6. The experiment in a line: Activity at CYP2B6 (unknown origin) expressed Escherichia coli C41 DE3 cells assessed as compound formation by measuring retention time treated with tamoxifen at 60 uM by LC-MS/MS analysis.

SMILES strings stand for the structures.

As to `CCC(=C(c1ccc(O)cc1)c1ccc(OCCN(C)C)cc1)c1ccccc1`, on Cytochrome P450 2B6 [1], the Retention time is 16.9 min.

On to `CC/C(=C(\c1ccccc1)c1ccc(OCCN(C)C)cc1)c1ccccc1` [TAMOXIFEN], for which the outcome on Cytochrome P450 2B6 [2] and at Cytochrome P450 2B6 [3] was Active.

For `C/C=C(/C(=C1C=CC(=O)C=C1)c1ccc(OCCN(C)C)cc1)c1ccccc1`, the values for the Retention_time (at Cytochrome P450 2B6 [4]; in data set [5]; on Cytochrome P450 2B6 [6]) were 16.9 min, 16.6 min and 18.3 min, respectively.
